Reference: US20190030005A1, “THERAPEUTIC AGENT FOR DYSLIPIDEMIA” (KOWA COMPANY, LTD., priority 2013, published 2019)

Experiments:
VLDL-C = experiment: Effects of combination use of Compound A and EPA on plasma VLDL-C levels in rats; format: in vivo, Wister rats; conditions: for VLDL-C Relative value (vs Control): oral once a day, Wister rats, plasma; for Effect on VLDL-C level, in words: Compound A 0.1 mg/kg and/or EPA 200 mg/kg, single or combination administration, Dunnett's test vs control
Method: (§1) Wister rats (7-week old, male, Charles River Laboratories Japan Inc.) were used for the experiments. Under ad libitum feeding, the blood samples were obtained from the cervical vein, and the rats were divided into four groups (N=8) based on the plasma TG levels, plasma TC levels and the body weights. From the next day, a solvent (a 0.5% aqueous solution of methyl cellulose: […] In the afternoon of the final administration day, the blood samples were obtained under a condition of 4 hours fasting under anesthesia with pentobarbital, and the plasma VLDL-C levels were measured according to the method by Usui et al. (Usui S et al., Clin. Chem. 46, 63-72, 2000.) by high-speed liquid chromatography. Further, the TG levels were measured by an automatic analyzer, by using a measuring reagent, Qualigent TG (Sekisui Medical Co., Ltd.). The synergistic effect was determined by using Bürgi's formula (when a relative level in a group of combined use is smaller than a value of a product of a relative level of single agent A and a relative level of single agent B, then there is a synergistic effect). Group 2: 0.1 mg/kg of Compound A Group 3: 200 mg/kg of EPA Group 4: 0.1 mg/kg of Compound A and 200 mg/kg of EPA The results are shown as the mean value±standard deviation. Comparison between the control group and the drug-administration group was performed using a Dunnett's multiple comparison test, and a risk rate of less than 5% was determined to have a significant difference.

TG = experiment: Effects of combination use of Compound A and EPA on TG levels in rats; format: in vivo, Wister rats; conditions: for TG Relative value (vs Control): oral once a day, Wister rats; for Effect on TG level, in words: Compound A 0.1 mg/kg and/or EPA 200 mg/kg, single or combination administration, Dunnett's test vs control
Method: as §1

LDL-C = experiment: Effects of combination use of Compound A and EPA on plasma LDL-C level in Wister rats; format: in vivo; conditions: for LDL-C Relative value (vs. Control): oral once a day, Wister rats, plasma; for Effect on LDL-C level, in words: single administration of Compound A (0.1 mg/kg) or EPA, Dunnett's test vs control
Method: as §1, with “divided into six groups (N=8)” for “divided into four groups (N=8)”, “the plasma LDL-C levels were” for “the plasma VLDL-C levels were”, “liquid chromatography. The synergistic” for “liquid chromatography. Further, the TG levels were measured by an automatic analyzer, by using a measuring reagent, Qualigent TG (Sekisui Medical Co., Ltd.). The synergistic”, “of EPA Group 5: 3,000 mg/kg of EPA Group 6: 0.1 mg/kg of Compound A and 3,000 mg/kg of EPA The results” for “of EPA The results”, “group and drug-administration group” for “group and the drug-administration group”, “was performed by using a” for “was performed using a”

Compound | VLDL-C Relative value (vs Control) (VLDL-C; Compound A 0.1 mg/kg alone) | Effect on VLDL-C level, in words (VLDL-C) | TG Relative value (vs Control) (TG; Compound A 0.1 mg/kg alone) | Effect on TG level, in words (TG) | LDL-C Relative value (vs. Control) (LDL-C; Compound A 0.1 mg/kg alone) | Effect on LDL-C level, in words (LDL-C) | VLDL-C Relative value (vs Control) (VLDL-C; EPA 200 mg/kg alone) | TG Relative value (vs Control) (TG; EPA 200 mg/kg alone) | LDL-C Relative value (vs. Control) (LDL-C; EPA 200 mg/kg alone) | LDL-C Relative value (vs. Control) (LDL-C; EPA 3000 mg/kg alone)
CC[C@@H](Oc1cccc(CN(CCCOc2ccc(OC)cc2)c2nc3ccccc3o2)c1)C(=O)O [Compound A, (R)-2-[3-[[N-(benzoxazol-2-yl)-N-3-(4-methoxyphenoxy)propyl]aminomethyl]phenoxy]butyric acid] | 0.68 | a tendency of decreasing the level of VLDL-C was observed | 0.82 | a tendency of decreasing the level of TG was observed | 1.02 | an obvious effect on LDL-C level was not observed |  |  |  | 
CC/C=C\C/C=C\C/C=C\C/C=C\C/C=C\CCCC(=O)O [EPA, All-cis-5,8,11,14,17-eicosapentaenoic acid] |  | any obvious effect on VLDL-C level was not observed |  | any obvious effect on TG level was not observed |  | mild decreasing action on LDL-C level was observed | 0.92 | 1.10 | 0.84 | 0.85
